# Data published in ChEMBL document CHEMBL5055685, “Discovery of the First Potent IDO1/IDO2 Dual Inhibitors: A Promising Strategy for Cancer Immunotherapy” (J Med Chem, 2021).
# Calls of active or inactive are those of the source. The rule behind the calls is not given here.
# Columns and labels:
# [1] = biological target: Proto-oncogene tyrosine-protein kinase ROS (Homo sapiens) (UniProt P08922); experiment: Inhibition of ROS (unknown origin) at 1 uM
# [2] = biological target: Tyrosine-protein kinase Yes (Homo sapiens) (UniProt P07947); experiment: Inhibition of YES (unknown origin) at 1 uM
# [3] = biological target: Tyrosine-protein kinase BTK (Homo sapiens) (UniProt Q06187); experiment: Inhibition of BTK (unknown origin) at 1 uM
# [4] = biological target: MAP/microtubule affinity-regulating kinase 4 (Homo sapiens) (UniProt Q96L34); experiment: Inhibition of MARK4 (unknown origin) at 1 uM
# [5] = biological target: Casein kinase I isoform alpha-like (Homo sapiens) (UniProt Q8N752); experiment: Inhibition of CK1a1L (unknown origin) at 1 uM
# [6] = biological target: Serine/threonine-protein kinase Nek5 (Homo sapiens) (UniProt Q6P3R8); experiment: Inhibition of NEK5 (unknown origin) at 1 uM
# [7] = biological target: Ribosomal protein S6 kinase alpha-3 (Homo sapiens) (UniProt P51812); experiment: Inhibition of RSK2 (unknown origin) at 1 uM
# [8] = biological target: Ribosomal protein S6 kinase beta-2 (Homo sapiens) (UniProt Q9UBS0); experiment: Inhibition of p70S6Kb (unknown origin) at 1 uM
# [9] = Intrinsic clearance in human liver microsomes; assay type: ADME, Microsome; settings: read-out: CLH
# HCT-116 [10] = experiment: Antitumor immunity in BALB/c mouse xenografted with human HCT-116 cells assessed as late Treg cells in tumor-draining lymph nodes by propidium iodide staining based flow cytometry analysis (reference value: 18.3 %); assay type: functional
# [11] = biological target: Ephrin type-A receptor 2 (Homo sapiens) (UniProt P29317); experiment: Inhibition of EPHA2 (unknown origin) at 1 uM
# [12] = biological target: Mitogen-activated protein kinase kinase kinase 1 (Homo sapiens) (UniProt Q13233); experiment: Inhibition of MEKK1 (unknown origin) at 1 uM
# [13] = biological target: Serine/threonine-protein kinase 4 (Homo sapiens) (UniProt Q13043); experiment: Inhibition of MST1 (unknown origin) at 1 uM
# Serine/threonine-protein kinase 4 (Homo sapiens), sequence (Q13043 whole entry): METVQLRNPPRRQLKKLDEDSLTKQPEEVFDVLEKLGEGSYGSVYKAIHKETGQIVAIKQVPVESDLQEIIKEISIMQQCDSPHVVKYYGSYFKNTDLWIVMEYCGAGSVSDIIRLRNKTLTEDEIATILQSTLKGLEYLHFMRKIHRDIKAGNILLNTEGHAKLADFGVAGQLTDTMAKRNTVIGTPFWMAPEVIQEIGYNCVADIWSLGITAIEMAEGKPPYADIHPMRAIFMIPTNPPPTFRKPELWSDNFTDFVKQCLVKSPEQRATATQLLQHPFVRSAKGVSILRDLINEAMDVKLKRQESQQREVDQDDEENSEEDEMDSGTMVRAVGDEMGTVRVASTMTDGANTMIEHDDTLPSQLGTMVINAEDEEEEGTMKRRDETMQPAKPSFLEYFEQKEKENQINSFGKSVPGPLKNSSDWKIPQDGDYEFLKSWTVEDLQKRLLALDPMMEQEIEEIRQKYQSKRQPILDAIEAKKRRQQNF
# [14] = biological target: Tyrosine-protein kinase HCK (Homo sapiens) (UniProt P08631); experiment: Inhibition of HCK (unknown origin) at 1 uM
# [15] = biological target: G protein-coupled receptor kinase 4 (Homo sapiens) (UniProt P32298); experiment: Inhibition of GRK4 (unknown origin) at 1 uM
# [16] = biological target: Insulin-like growth factor 1 receptor (Homo sapiens) (UniProt P08069); experiment: Inhibition of IGF1R (unknown origin) at 1 uM
# Insulin-like growth factor 1 receptor (Homo sapiens), sequence (P08069 31-736 limits assumed): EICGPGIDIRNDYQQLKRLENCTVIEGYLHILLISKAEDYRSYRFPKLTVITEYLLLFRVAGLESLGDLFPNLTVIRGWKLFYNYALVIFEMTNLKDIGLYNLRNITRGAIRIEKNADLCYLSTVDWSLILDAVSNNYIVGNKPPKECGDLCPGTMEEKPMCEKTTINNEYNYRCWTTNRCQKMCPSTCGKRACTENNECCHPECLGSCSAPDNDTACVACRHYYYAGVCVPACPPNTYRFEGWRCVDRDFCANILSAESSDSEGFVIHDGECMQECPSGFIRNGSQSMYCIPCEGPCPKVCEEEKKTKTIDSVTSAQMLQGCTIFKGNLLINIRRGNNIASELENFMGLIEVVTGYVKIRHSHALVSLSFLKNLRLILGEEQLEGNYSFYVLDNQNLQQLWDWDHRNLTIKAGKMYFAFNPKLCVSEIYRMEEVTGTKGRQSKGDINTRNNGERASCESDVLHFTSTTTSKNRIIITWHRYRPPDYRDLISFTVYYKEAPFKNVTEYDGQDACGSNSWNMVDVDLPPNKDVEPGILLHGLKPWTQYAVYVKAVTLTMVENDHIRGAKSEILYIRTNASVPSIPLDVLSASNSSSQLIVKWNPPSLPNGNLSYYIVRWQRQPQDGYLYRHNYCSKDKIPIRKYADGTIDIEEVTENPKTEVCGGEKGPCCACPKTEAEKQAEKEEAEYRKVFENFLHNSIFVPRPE
# Insulin-like growth factor 1 receptor (Homo sapiens), sequence (P08069 741-1367 limits assumed): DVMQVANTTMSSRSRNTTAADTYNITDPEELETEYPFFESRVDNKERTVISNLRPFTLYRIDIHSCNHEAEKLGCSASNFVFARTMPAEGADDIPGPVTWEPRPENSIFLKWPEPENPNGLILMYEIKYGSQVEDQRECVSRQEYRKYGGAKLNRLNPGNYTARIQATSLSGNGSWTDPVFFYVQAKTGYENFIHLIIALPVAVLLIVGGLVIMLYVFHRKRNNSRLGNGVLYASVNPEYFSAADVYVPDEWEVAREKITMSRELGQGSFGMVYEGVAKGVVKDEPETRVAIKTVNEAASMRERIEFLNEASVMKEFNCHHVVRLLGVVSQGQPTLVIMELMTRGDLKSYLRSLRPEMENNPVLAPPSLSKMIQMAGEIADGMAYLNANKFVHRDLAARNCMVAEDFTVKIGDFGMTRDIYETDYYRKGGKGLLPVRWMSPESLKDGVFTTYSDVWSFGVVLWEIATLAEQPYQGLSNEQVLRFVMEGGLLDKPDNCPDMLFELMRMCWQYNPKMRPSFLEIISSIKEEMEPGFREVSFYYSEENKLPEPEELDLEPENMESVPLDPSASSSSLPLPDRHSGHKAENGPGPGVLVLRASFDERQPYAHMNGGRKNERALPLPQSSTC
# [17] = biological target: Mitogen-activated protein kinase kinase kinase 20 (Homo sapiens) (UniProt Q9NYL2); experiment: Inhibition of ZAK (unknown origin) at 1 uM
# [18] = biological target: Mitogen-activated protein kinase kinase kinase 21 (Homo sapiens) (UniProt Q5TCX8); experiment: Inhibition of MLK4 (unknown origin)at 1 uM
# [19] = Metabolic stability in rat liver microsomes assessed as rate constant; assay type: ADME, Microsome
# [20] = biological target: Serine/threonine-protein kinase TAO2 (Homo sapiens) (UniProt Q9UL54); experiment: Inhibition of TAOK2 (unknown origin) at 1 uM
# [21] = biological target: Dual specificity mitogen-activated protein kinase kinase 3 (Homo sapiens) (UniProt P46734); experiment: Inhibition of MEK3 (unknown origin) at 1 uM
# Dual specificity mitogen-activated protein kinase kinase 3 (Homo sapiens), sequence (P46734 whole entry): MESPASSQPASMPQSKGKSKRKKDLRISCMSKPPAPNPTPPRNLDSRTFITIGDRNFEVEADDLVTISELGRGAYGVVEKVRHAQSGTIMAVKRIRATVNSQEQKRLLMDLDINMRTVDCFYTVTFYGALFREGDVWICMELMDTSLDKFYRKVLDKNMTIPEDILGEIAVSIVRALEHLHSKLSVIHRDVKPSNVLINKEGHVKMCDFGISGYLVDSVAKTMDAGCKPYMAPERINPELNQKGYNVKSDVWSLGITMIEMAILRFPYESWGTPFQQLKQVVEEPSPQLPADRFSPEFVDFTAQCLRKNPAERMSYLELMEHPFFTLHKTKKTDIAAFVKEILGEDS
# [22] = biological target: Ephrin type-A receptor 5 (Homo sapiens) (UniProt P54756); experiment: Inhibition of EPHA5 (unknown origin) at 1 uM
# Ephrin type-A receptor 5 (Homo sapiens), sequence (P54756 whole entry): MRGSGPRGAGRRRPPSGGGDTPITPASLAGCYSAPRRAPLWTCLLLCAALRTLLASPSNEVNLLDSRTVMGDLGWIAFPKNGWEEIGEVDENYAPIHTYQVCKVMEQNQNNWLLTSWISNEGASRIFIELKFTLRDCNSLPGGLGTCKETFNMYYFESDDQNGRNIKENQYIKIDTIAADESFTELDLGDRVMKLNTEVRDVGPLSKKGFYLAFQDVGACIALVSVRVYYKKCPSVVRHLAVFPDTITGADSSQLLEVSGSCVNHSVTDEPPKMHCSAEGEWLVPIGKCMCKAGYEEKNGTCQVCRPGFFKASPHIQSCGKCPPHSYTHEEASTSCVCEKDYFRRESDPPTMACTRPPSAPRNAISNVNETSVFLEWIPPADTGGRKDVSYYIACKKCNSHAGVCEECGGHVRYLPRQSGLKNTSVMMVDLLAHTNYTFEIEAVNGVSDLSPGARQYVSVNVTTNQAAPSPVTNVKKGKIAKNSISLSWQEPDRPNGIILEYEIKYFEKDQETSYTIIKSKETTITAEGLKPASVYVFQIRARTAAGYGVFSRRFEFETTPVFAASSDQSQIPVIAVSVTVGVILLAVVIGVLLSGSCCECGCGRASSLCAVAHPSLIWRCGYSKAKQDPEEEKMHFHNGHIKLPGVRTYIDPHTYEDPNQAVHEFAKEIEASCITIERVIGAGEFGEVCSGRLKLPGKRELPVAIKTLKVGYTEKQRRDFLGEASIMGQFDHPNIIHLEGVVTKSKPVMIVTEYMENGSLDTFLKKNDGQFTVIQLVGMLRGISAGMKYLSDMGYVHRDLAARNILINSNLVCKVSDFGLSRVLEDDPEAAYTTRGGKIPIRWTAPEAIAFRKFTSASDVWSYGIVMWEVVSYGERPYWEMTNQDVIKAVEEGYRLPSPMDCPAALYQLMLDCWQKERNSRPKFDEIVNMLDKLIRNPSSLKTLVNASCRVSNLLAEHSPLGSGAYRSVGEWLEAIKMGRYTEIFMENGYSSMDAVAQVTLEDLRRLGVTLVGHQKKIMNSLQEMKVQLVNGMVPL
# [23] = biological target: Serine/threonine-protein kinase BRSK1 (Homo sapiens) (UniProt Q8TDC3); experiment: Inhibition of BRSK1 (unknown origin) at 1 uM
# [24] = biological target: Homeodomain-interacting protein kinase 3 (Homo sapiens) (UniProt Q9H422); experiment: Inhibition of HIPK3 (unknown origin) at 1 uM
# [25] = biological target: Casein kinase I isoform gamma-3 (Homo sapiens) (UniProt Q9Y6M4); experiment: Inhibition of CK1gamma3 (unknown origin) at 1 uM
# Casein kinase I isoform gamma-3 (Homo sapiens), sequence (Q9Y6M4 whole entry, looked up, canonical isoform): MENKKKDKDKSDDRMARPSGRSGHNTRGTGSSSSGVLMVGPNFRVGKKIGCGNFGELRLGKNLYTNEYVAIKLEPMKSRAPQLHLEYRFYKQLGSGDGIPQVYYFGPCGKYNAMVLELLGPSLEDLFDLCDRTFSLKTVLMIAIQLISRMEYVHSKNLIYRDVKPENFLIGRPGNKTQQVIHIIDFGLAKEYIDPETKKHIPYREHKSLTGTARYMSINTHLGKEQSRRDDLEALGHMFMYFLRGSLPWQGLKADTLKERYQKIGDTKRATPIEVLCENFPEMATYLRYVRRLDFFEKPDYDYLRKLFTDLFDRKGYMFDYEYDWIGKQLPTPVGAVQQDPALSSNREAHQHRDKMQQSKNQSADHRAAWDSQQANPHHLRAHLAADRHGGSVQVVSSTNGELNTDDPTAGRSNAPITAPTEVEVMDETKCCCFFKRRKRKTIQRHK
# [26] = biological target: Serine/threonine-protein kinase ULK3 (Homo sapiens) (UniProt Q6PHR2); experiment: Inhibition of ULK3 (unknown origin) at 1 uM
# Serine/threonine-protein kinase ULK3 (Homo sapiens), sequence (Q6PHR2 whole entry): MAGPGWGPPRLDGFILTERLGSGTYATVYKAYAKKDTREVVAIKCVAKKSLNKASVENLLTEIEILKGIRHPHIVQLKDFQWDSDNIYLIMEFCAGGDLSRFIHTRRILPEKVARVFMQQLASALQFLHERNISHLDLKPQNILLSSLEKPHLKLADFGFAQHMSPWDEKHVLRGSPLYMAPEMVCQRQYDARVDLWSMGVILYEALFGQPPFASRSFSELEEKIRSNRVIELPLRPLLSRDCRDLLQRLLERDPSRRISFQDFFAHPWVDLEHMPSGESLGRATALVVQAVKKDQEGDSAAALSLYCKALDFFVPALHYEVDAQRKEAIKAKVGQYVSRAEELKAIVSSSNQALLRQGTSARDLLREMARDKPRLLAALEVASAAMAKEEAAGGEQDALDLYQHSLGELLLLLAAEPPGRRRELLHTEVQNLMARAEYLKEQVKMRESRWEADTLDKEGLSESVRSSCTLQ
# [27] = biological target: Serine/threonine-protein kinase TBK1 (Homo sapiens) (UniProt Q9UHD2); experiment: Inhibition of TBK1 (unknown origin) at 1 uM
# HCT-116 [28] = experiment: Cytotoxicity against human HCT-116 cells assessed as reduction in cell viability by CCK8 assay; assay type: functional, cell-based
# [29] = biological target: Aurora kinase C (Homo sapiens) (UniProt Q9UQB9); experiment: Inhibition of Aurora C (unknown origin) at 1 uM
# Aurora kinase C (Homo sapiens), sequence (Q9UQB9 whole entry): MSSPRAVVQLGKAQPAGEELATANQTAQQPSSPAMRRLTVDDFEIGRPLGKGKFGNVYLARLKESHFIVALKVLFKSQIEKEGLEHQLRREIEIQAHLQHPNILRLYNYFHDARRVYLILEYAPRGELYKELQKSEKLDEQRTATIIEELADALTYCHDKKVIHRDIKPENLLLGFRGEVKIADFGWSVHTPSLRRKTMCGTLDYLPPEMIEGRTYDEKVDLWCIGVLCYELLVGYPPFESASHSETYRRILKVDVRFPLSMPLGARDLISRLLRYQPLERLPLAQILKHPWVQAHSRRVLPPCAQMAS
# [30] = biological target: Serine/threonine-protein kinase pim-3 (Homo sapiens) (UniProt Q86V86); experiment: Inhibition of PIM3 (unknown origin) at 1 uM
# [31] = biological target: Serine/threonine-protein kinase STK11 (Homo sapiens) (UniProt Q15831); experiment: Inhibition of LKB1 (unknown origin) at 1 uM
# [32] = biological target: Misshapen-like kinase 1 (Homo sapiens) (UniProt Q8N4C8); experiment: Inhibition of MINK1 (unknown origin) at 1 uM
# [33] = Apparent permeability across apical to basolateral side in human Caco-2 cells assessed as drug recovery; assay type: ADME, cell-based; settings: read-out: Drug recovery
# [34] = biological target: Mitogen-activated protein kinase kinase kinase 6 (Homo sapiens) (UniProt O95382); experiment: Inhibition of MEKK6 (unknown origin) at 1 uM
# [35] = biological target: ALK tyrosine kinase receptor (Homo sapiens) (UniProt Q9UM73); experiment: Inhibition of ALK (unknown origin) at 1 uM
# [36] = biological target: Epithelial discoidin domain-containing receptor 1 (Homo sapiens) (UniProt Q08345); experiment: Inhibition of DDR1 (unknown origin) at 1 uM
# [37] = biological target: STE20-like serine/threonine-protein kinase (Homo sapiens) (UniProt Q9H2G2); experiment: Inhibition of SLK (unknown origin) at 1 uM
# [38] = biological target: Serine/threonine-protein kinase Nek11 (Homo sapiens) (UniProt Q8NG66); experiment: Inhibition of NEK11 (unknown origin) at 1 uM
# [39] = biological target: LIM domain kinase 1 (Homo sapiens) (UniProt P53667); experiment: Inhibition of LIMK1 (unknown origin) at 1 uM
# [40] = biological target: Testis-specific serine/threonine-protein kinase 3 (Homo sapiens) (UniProt Q96PN8); experiment: Inhibition of TSSK3 (unknown origin) at 1 uM
# [41] = biological target: Serine/threonine-protein kinase NLK (Homo sapiens) (UniProt Q9UBE8); experiment: Inhibition of NLK (unknown origin) at 1 uM
# Serine/threonine-protein kinase NLK (Homo sapiens), sequence (Q9UBE8 whole entry): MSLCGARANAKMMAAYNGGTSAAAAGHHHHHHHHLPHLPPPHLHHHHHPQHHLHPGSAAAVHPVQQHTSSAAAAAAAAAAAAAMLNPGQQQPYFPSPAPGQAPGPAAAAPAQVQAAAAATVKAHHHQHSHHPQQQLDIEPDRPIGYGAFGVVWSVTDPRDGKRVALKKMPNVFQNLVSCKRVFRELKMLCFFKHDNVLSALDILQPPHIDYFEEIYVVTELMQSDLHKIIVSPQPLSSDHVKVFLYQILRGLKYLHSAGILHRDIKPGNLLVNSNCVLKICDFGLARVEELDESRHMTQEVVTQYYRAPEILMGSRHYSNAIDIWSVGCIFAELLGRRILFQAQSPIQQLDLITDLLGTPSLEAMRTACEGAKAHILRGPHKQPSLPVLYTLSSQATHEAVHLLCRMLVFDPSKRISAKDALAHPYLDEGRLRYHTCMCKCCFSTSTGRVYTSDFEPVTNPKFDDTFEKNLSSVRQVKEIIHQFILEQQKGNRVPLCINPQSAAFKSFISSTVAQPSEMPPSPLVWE
# [42] = Apparent permeability across basolateral to apical side in human Caco-2 cells; assay type: ADME, cell-based
# [43] = biological target: CDK1/Cyclin E (Homo sapiens) (UniProt P06493+P24864); experiment: Inhibition of CDK1/cyclinE (unknown origin) at 1 uM; assay type: protein-complex assay
# [44] = biological target: Serine/threonine-protein kinase PAK 2 (Homo sapiens) (UniProt Q13177); experiment: Inhibition of PAK2 (unknown origin) at 1 uM
# [45] = biological target: Serine/threonine-protein kinase PAK 4 (Homo sapiens) (UniProt O96013); experiment: Inhibition of PAK4 (unknown origin) at 1 uM
# [46] = biological target: Serine/threonine-protein kinase N1 (Homo sapiens) (UniProt Q16512); experiment: Inhibition of PKN1 (unknown origin) at 1 uM
compound,measurement,setting,value
OCCOCc1cn(CCNc2nonc2/C(=N/O)Nc2ccc(F)c(Br)c2)nn1,inhibition,[1],inactive
same,inhibition,[2],inactive
same,inhibition,[3],inactive
same,inhibition,[4],inactive
same,inhibition,[5],inactive
same,inhibition,[6],inactive
same,inhibition,[7],inactive
same,inhibition,[8],inactive
same,microsomal CLint,[9],30.1 µL/min/mg
same,Activity,HCT-116 [10],7.31%
same,inhibition,[11],inactive
same,inhibition,[12],inactive
same,inhibition,[13],inactive
same,inhibition,[14],inactive
same,inhibition,[15],inactive
same,inhibition,[16],inactive
same,inhibition,[17],inactive
same,inhibition,[18],inactive
same,k el,[19],0.000545 s⁻¹
same,inhibition,[20],inactive
same,inhibition,[21],inactive
same,inhibition,[22],inactive
same,inhibition,[23],inactive
same,inhibition,[24],inactive
same,inhibition,[25],inactive
same,inhibition,[26],inactive
same,inhibition,[27],inactive
same,IC50,HCT-116 [28],56.1 µM
same,inhibition,[29],inactive
same,inhibition,[30],inactive
same,inhibition,[31],inactive
same,inhibition,[32],inactive
same,recovery,[33],91.1%
same,inhibition,[34],inactive
same,inhibition,[35],inactive
same,inhibition,[36],inactive
same,inhibition,[37],inactive
same,inhibition,[38],inactive
same,inhibition,[39],inactive
same,inhibition,[40],inactive
same,inhibition,[41],inactive
same,Papp B→A,[42],46 ×10⁻⁶ cm/s
same,inhibition,[43],inactive
same,inhibition,[44],inactive
same,inhibition,[45],inactive
same,inhibition,[46],inactive
